Values of other authors, collected in patent US20060251722A1, “Multi-component vitamin and mineral supplement for the optimal absorption of components” (Novavax, Inc., priority 2005, published 2006).

Conditions: rat, in vivo, po

carbonyl iron
bioavailability relative to other elemental iron forms: 2-5 times
